These are literature values, as cited in US7333894B2, “Methods for the diagnosis of hemodialysis patients and utilization of such methods to improve the administration of intravenous levocarnitine treatments to hemodialysis patients” (Sigma-Tau Pharmaceuticals, Inc., priority 2002, dated 2008).

The structures appear in SMILES notation.

The conditions of data set [1]: hemodialysis patient, one dialysis session.
For data set [2] the following is noted: intravenous administration at the end of a dialysis session, ESRD patients.

`C[N+](C)(C)C[C@H](O)CC(=O)[O-]` [carnitine, levocarnitine]: the “carnitine present in the plasma removed during a dialysis session” value in data set [1] was “more than 70%”. The “time for plasma carnitine levels to return to pre-dialysis baseline levels” value in data set [2] was 10 to 24 h.
